Measurements as given in patent US20230416329A1, “A PEPTIDE WITH DISULFIDE BONDS AND INHIBITORY ACTIVITY AGAINST SERINE PROTEASES, DERIVED HYBRID PEPTIDES THEREOF, AND USES THEREOF” (INSTITUTE OF MATERIA MEDICA , CHINESE ACADEMY OF MEDICAL …, priority 2020, published 2023).

Assays:
[1] = Stability of GLP-1 and its analogues in human serum; conditions: 25% (v/v) human serum
Procedure: The amount of the prototype peptide at 0 h was taken as 100%. At different time point, 100 μL aliquots was taken out, and 300 μL precooled anhydrous methanol was added to terminate the reaction. The remaining percentage (%) of the peptide relative to the prototype peptide at that time point was analyzed by reverse phase high performance liquid chromatography. The experiment was performed with three replicates, and data were expressed as “mean±standard deviation”. The sample was subjected to high-speed centrifugation, supernatant extraction, and freeze drying, followed by dissolution in 50% (v/v) methanol/water solution, and analyzed by reverse phase high performance liquid chromatography. The experiment was performed with three replicates, and data were expressed as “mean±standard deviation”.
Invert and mix thoroughly, then leave at −20° C. overnight. At the same time, take three sterile EP tubes and add 25 μL of human serum, 75 μL of 50 mM Tris-HCl buffer (pH7.0), and 300 μL of pre-cold absolute methanol. Invert and mix thoroughly, then leave at −20° C. overnight as a negative control, so as to eliminate the interference of proteins or peptides contained in human serum at the peak time of the target peptide after methanol precipitation.
Arrange a certain volume of human serum in another sterile EP. Incubate the EP tubes containing peptides and serum at 37° C. for 10 min, and add 137.5 μL of human serum to each EP tube containing peptides and mix well. […] Start timing and remove 100 μL of reaction solution at 0.5, 2.0, 4.0, 8.0, and 12.0 h later, respectively. Add 300 μL of pre-cold absolute methanol. Invert and mix thoroughly, then leave at −20° C. overnight. […] There are three replicates at each time point, and the peak area of the peptide at each time point is detected using reverse phase high-performance liquid chromatography (RP-HPLC). The ratio of the remaining peak area of the sample at detection time T (h) to the peak area of the prototype peptide at 0 h is calculated as the remaining percentage (%) of the peptide.

chymotrypsin = chymotrypsin (Bos taurus, UniProt P00766); test: in vitro; conditions: isolated enzyme chymotrypsin, pH 7.8, Remaining peak area (%)/chymotrypsin
Method in brief: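 Peptide and 0.05 μg/μL chymotrypsin were preincubated at 37 °C for 5 min, then mixed. Aliquots taken from 1.5 up to 60.0 min were quenched with 10% TFA, and remaining peptide was measured as RP-HPLC peak area.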

DPP-IV = DPP-IV (Homo sapiens, UniProt P27487); test: Tolerance of GLP-1 and its analogues to DPP-IV (RP-HPLC remaining peak area); type: in vitro ADME; conditions: peptide 25 μM, DPP-IV 0.5 ng/μL, 37° C.
Procedure: Mix by centrifugation at 8000 rpm for 30 seconds.
(2) Arrange a certain volume of 0.005 μg/μL DPP-IV solution in another sterile EP.

Sequence of DPP-IV (P27487 whole entry, species assumed): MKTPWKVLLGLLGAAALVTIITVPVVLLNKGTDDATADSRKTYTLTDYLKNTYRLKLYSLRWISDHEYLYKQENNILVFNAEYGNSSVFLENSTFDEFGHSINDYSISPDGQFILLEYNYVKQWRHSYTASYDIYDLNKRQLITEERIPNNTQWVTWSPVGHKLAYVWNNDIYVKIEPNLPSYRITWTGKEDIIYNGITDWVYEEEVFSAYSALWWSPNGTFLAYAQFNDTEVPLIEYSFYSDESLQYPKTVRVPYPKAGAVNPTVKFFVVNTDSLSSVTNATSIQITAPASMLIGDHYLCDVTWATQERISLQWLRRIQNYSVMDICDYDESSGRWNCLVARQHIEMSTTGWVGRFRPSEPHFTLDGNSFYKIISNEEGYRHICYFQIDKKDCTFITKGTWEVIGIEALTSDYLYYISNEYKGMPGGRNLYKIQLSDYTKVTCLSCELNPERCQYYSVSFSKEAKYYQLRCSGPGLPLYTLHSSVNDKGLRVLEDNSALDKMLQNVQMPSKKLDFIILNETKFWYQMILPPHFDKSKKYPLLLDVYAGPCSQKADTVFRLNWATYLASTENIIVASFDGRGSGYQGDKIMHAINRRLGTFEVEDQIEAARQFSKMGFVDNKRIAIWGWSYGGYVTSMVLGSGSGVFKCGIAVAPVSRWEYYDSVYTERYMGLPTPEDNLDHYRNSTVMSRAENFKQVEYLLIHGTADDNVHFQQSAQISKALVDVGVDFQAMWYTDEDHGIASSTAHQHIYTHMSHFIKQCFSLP

Which “Remaining peak area (%)/human serum” value ([1]; 0.0 h, peptide 0.03 mM, 37° C.) does the source give for `CC[C@H](C)[C@H](NC(=O)[C@H](Cc1ccccc1)NC(=O)[C@H](CCC(=O)O)NC(=O)[C@H](CCCCN)NC(=O)[C@H](C)NC(=O)[C@H](C)NC(=O)[C@H](CCC(N)=O)NC(=O)CNC(=O)[C@H](CCC(=O)O)NC(=O)[C@H](CC(C)C)NC(=O)[C@H](Cc1ccc(O)cc1)NC(=O)[C@H](CO)NC(=O)[C@H](CO)NC(=O)[C@@H](NC(=O)[C@H](CC(=O)O)NC(=O)[C@H](CO)NC(=O)[C@@H](NC(=O)[C@H](Cc1ccccc1)NC(=O)[C@@H](NC(=O)CNC(=O)[C@H](CCC(=O)O)NC(=O)[C@H](C)NC(=O)[C@H](Cc1c[nH]cn1)NC(=O)CNC(=O)CNC(=O)[C@@H](NC(=O)[C@@H]1CCCN1C(=O)[C@@H](NC(=O)CNC(=O)CNC(=O)[C@H](Cc1ccc(O)cc1)NC(=O)[C@@H]1CSSC[C@H](NC(=O)[C@@H](N)Cc2ccccc2)C(=O)N[C@@H]([C@@H](C)O)C(=O)N[C@@H](Cc2ccc(O)cc2)C(=O)N[C@@H](CO)C(=O)N[C@@H]([C@@H](C)CC)C(=O)N2CCC[C@H]2C(=O)N2CCC[C@H]2C(=O)N[C@@H](CCC(N)=O)C(=O)N1)[C@@H](C)CC)[C@@H](C)CC)[C@@H](C)O)[C@@H](C)O)C(C)C)C(=O)N[C@@H](C)C(=O)N[C@@H](Cc1c[nH]c2ccccc12)C(=O)N[C@@H](CC(C)C)C(=O)N[C@H](C(=O)N[C@@H](CCCCN)C(=O)NCC(=O)N[C@@H](CCCNC(=N)N)C(=O)NCC(=O)NCC(=O)N[C@@H](CCCCN)C(=O)O)C(C)C` [CH10-D-GLP-1] here?
Its value is 100.0 ± 0.0%.

What about the remaining at 0.5 h, 0.03 mM ([1]; human, pH 7) of the same molecule?
Its remaining at 0.5 h, 0.03 mM is 74.4 ± 5.5%.

And the remaining at 2 h, 0.03 mM ([1]; human, pH 7)?
Its remaining at 2 h, 0.03 mM is 54.8 ± 2.1%.

What about the remaining at 4 h, 0.03 mM ([1]; human, pH 7) of the same molecule?
Its remaining at 4 h, 0.03 mM is 26.2 ± 2.9%.

What about the remaining at 8 h, 0.03 mM ([1]; human, pH 7) of the same molecule?
The remaining at 8 h, 0.03 mM was 7.3 ± 1%.

What about the remaining at 12 h, 0.03 mM ([1]; human, pH 7) of the same molecule?
The remaining at 12 h, 0.03 mM was 0.8%.

And the remaining at 0.025 h, 60 μM (chymotrypsin)?
Its remaining at 0.025 h, 60 μM is 59.7 ± 2.1%.

What about the remaining at 0.05 h, 60 μM (chymotrypsin) of the same molecule?
Its remaining at 0.05 h, 60 μM is 59.1 ± 4.5%.

What about the remaining at 0.075 h, 60 μM (chymotrypsin) of the same molecule?
Its remaining at 0.075 h, 60 μM is 54.5 ± 1.2%.

What about the remaining at 0.1 h, 60 μM (chymotrypsin) of the same molecule?
Its remaining at 0.1 h, 60 μM is 57.3 ± 1.5%.

And the remaining at 0.15 h, 60 μM (chymotrypsin)?
Its remaining at 0.15 h, 60 μM is 56.3 ± 4.7%.

And the remaining at 0.25 h, 60 μM (chymotrypsin)?
Its remaining at 0.25 h, 60 μM is 54 ± 4.7%.

And the remaining at 0.5 h, 60 μM (chymotrypsin)?
The remaining at 0.5 h, 60 μM was 57.4 ± 4%.

And the remaining at 1 h, 60 μM (chymotrypsin)?
The remaining at 1 h, 60 μM was 59.4 ± 2.1%.

What about the “Remaining peak area (%)/DPP-IV” value (DPP-IV; 0.0 h) of the same molecule?
The value was 100.0 ± 0.0%.

What about the remaining at 0.5 h, 25 μM (DPP-IV; isolated DPP-IV enzyme in buffer, pH 8, 0.5 h) of the same molecule?
Its remaining at 0.5 h, 25 μM is 91.2 ± 3.2%.

What about the remaining at 2 h, 25 μM (DPP-IV; isolated DPP-IV enzyme in buffer, pH 8, 2.0 h) of the same molecule?
Its remaining at 2 h, 25 μM is 94.1 ± 2.3%.

What about the remaining at 4 h, 25 μM (DPP-IV; isolated DPP-IV enzyme in buffer, pH 8, 4.0 h) of the same molecule?
The remaining at 4 h, 25 μM was 86.8 ± 0.8%.

What about the remaining at 8 h, 25 μM (DPP-IV; isolated DPP-IV enzyme in buffer, pH 8, 8.0 h) of the same molecule?
The remaining at 8 h, 25 μM was 84.1 ± 6.7%.

And the remaining at 12 h, 25 μM (DPP-IV; isolated DPP-IV enzyme in buffer, pH 8, 12.0 h)?
The remaining at 12 h, 25 μM was 81.8 ± 0.6%.
